The test system of test [1] is hemizygous PMP22 transgenic rat (CMT rat). As to the kind of experiment: Electrophysiological evaluation in CMT transgenic rats. In kind it is in vivo. Conditions: versus TG placebo group; for potential amplitude measured on the distal portion of the tail: CMT rats treated during 20 weeks. An excerpt: When appropriate, the rats are subjected to electrophysiological evaluation and histological measurement.

For another test, the system named is PMP22 mRNA. Put plainly: PMP22 mRNA level by quantitative RT-PCR after drug stimulation of rat Schwann cell primary culture. In kind it is cell-based. Also on record: key: +: significantly decreases PMP22 levels compared to control. As to conditions: rat primary Schwann cells, drug incubation 24 hrs. Here is the method:
After cells being platted in 12 well-dishes, the medium is replaced by a defined medium consisting in a mix of DMEM-F12 (Invitrogen #21331020) complemented by 1% of N2 supplement (Invitrogen #17502), 1% L-Glutamine (Invitrogen #25030024) 2.5% FBS (Sciencell #0025), 0.02 μg/ml of corticosterone (Sigma #C2505), 4 μM Forskolin and 50 μg/ml of gentamycin. Growth factors are not added to this medium, to promote SC differentiation
24 hours later, the medium is replaced by a defined medium (DMEM-F12) complemented with 1% Insulin-Transferrin-Selenium-X (ITS, Invitrogen #51300), 16 μg/ml of Putrescine (Sigma #P5780), 0.02 μg/ml of corticosterone and 50 μg/ml of gentamicin. At this step, neither progesterone nor forskolin are present in the medium.
One day later, Schwann cells are stimulated by combinations of drugs or drugs alone during 24 hrs (3 wells/condition). The preparation of each compound is performed just prior to its addition to the cell culture medium.
Drugs are added to a defined medium composed of DMEM-F12, with 1% Insulin-Transferrin-Selenium-X (ITS, Invitrogen #51300), 16 μg/ml of Putrescine, 0.02 μg/ml of corticosterone, 10 nM Progesterone and 50 μg/ml of gentamicin. The absence of Forskolin during drug stimulation avoids adenylate cyclase saturation.
Quantitative RT-PCR is used to compare the levels of PMP22 mRNA after drug stimulation, relative with housekeeping Ribosomal L13A mRNA in rat Schwann cell primary culture.
After rinsing with cold sterilized PBS, total RNAs from each cell sample are extracted and purified from SC using the Qiagen RNeasy micro kit (Qiagen #74004). Nucleic acids are quantified by Nanodrop spectrophotometer using 1 μl of RNA sample. The RNA integrity is determined through a BioAnalyzer (Agilent) apparatus.
RNAs are reverse-transcribed into cDNA according to standard protocol. cDNA templates for PCR amplification are synthesized from 200 ng of total RNA using SuperScript II reverse-transcriptase (Invitrogen #18064-014) for 60 min at 42° C. in the presence of oligo(dT), in a final volume of 20 μl.
cDNAs are subjected to PCR amplification using the ? LightCycler® 480 ? system (Roche Molecular Systems Inc.) Each cDNA are diluted five times before being used for PCR amplification. 2.5 μl of this cDNAs enters the PCR reaction solution (final volume of 10 μl). Preliminary experiments ensured that quantitation was done in the exponential phase of the amplification process for both sequences and that expression of the reference gene was uniform in the different culture conditions.
PCR reaction is performed by amplification of 500 nM of forward primer of rat PMP22 (NM_017037), 5-GGAAACGCGAATGAGGC-3 (SEQ ID NO: 1), and 500 nM of reverse primer 5-GTTCTGTTTGGTTTGGCTT-3 (SEQ ID NO: 2) (amplification of 148-bp). A 152-bp fragment of the RPL13A ribosomal (NM_173340) RNA is amplified in parallel in separate reactions for normalization of the results by using 500 nM of forward primer 5-CTGCCCTCAAGGTTGTG-3 (SEQ ID NO: 3), and 500 nM of reverse primer 5-[…]-3 (SEQ ID NO: 4).
We used FRET chemistry to perform RT-Q-PCR analysis. FRET probes are composed of 0.3 μM of Pmp22-FL-5-[…] (SEQ ID NO: 5) or Rpl13A-FL-5-TCGGGTGGAAGTACCAGCC (SEQ ID NO: 6), labelled at their 3′ end with a donor fluorophore dye (Fluorescein). 0.15 μM Red640 probes are defined as follows: Pmp22-red-5′-[…]- (SEQ ID NO: 7) or Rpl13A-red-5′-[…] (SEQ ID NO: 8), labelled at their 5′ end with an acceptor fluorophore dye (Rhodamine Red 640).
Each PCR reaction contained 2.5 μl cDNA template in a final volume of 10 μl of master mix kit (Roche #04-887301001).
The following PCR conditions are used: 10 sec at 95° C., 10 sec at 63° C. and 12 sec at 72° C. and 30 sec at 40° C. (Forty amplification cycles). The relative levels of PMP22 gene expression is measured by determining the ratio between the products generated from the target gene PMP22 and the endogenous internal standard RPL13A. […]

Each structure is given as a SMILES string.

On to `Cn1cc[nH]c1=S` [Methimazole], for which the “potential amplitude measured on the distal portion of the tail” value in test [1] was “significantly improved”. Besides, the “nerve conduction velocity (NCV)” value in test [1] (CMT rats) is given as “not significantly affected”. Besides, the “mRNA (PMP22 expression decrease)” value in the test with PMP22 mRNA is “+”.

As for `CC[C@@H]1C(=O)OC[C@@H]1Cc1cncn1C` [Pilocarpine], the “potential amplitude measured on the distal portion of the tail” value in test [1] is “failed to reach statistical significance”. In addition, the “mRNA (PMP22 expression decrease)” value in the test on PMP22 mRNA was “+”.
